This passage reports IC50 results from patent US11773057B2, “Naphthalenesulfonamide compound, preparation method, and application” (CHINA PHARMACEUTICAL UNIVERSITY, priority 2019, dated 2023).

A word on the IC50: it is the midpoint of a concentration-inhibition curve. A lower IC50 goes with greater potency in that assay.

T1 sequence (Q14145 321-609 limits assumed): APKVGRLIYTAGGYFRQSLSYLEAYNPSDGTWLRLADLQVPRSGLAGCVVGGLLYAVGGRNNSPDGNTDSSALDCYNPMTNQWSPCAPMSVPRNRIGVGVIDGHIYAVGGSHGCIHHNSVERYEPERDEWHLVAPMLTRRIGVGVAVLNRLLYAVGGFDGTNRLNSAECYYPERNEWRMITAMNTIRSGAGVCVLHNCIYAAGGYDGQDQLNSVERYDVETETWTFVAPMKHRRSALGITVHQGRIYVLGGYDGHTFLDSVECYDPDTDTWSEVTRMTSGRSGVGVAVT

The first assay addresses T1, Keap1-Nrf2 PPI (Keap1 kelch domain protein, FITC labeled Nrf2 9 peptide) (Homo sapiens, UniProt Q14145).
T1 construct: 10 μL 12 nm Keap1 kelch domain protein
Kind of assay: Fluorescence polarization based Keap1-Nrf2 PPI competitive inhibition experiment (FP experiment). Type of assay: binding. Particulars: FP experiment; general formula I / II compounds. On the procedure: 1. Keap1-Nrf2 PPI Competitive Inhibition Test Based on Fluorescence Polarization (FP Experiment)
The 384-well blackboard model 3676 produced by Corning is used in FP experiment, with a total volume of reaction of 40 μL. 20 μL compound, 10 μL 4 nm FITC labeled Nrf2 9 peptide, 10 μL 12 nm Keap1 kelch domain protein are added to the well in order. 20 μL 200 nM DDO-1002, 10 μL 4 nM of the FITC-labeled Nrf2 9 peptide, 10 μL 12 nM of Keap1 Ketch domain protein are used in the positive control; 20 μL HEPES buffer, 10 μL 4 nM of the FITC-labeled Nrf2 9 peptide, 10 μL, 12 nM of Keap1 Kelch domain protein are used in the negative control; 10 μL 4 nM of the FITC-labeled Nrf2 9 peptide, 30 μL of HEPES buffer are used in the blank control. After addition is complete, they are incubated for 30 min at room temperature. The detection instrument is a SpectraMax Multi-Mode Microplate Reader (Molecular Devices), the excitation light wavelength selected is 485 nm, the emission light wavelength is 545 nm, and the fluorescence intensity in the horizontal and vertical directions is detected to calculate the polarization value. The inhibition rate is calculated as: inhibition %=[…]/(Pmax−Pmin) wherein Pobs is the polarization value of the compound well, Pmax is the polarization value of the negative control well, and Pmin is the polarization value of the blank well. Data treatment is performed using GraphPad Prism, and IC50 of the compound is calculated using a concentration-inhibition rate curve. The IC50 values for each compound are as previously described.
As for `COc1ccc(S(=O)(=O)Nc2ccc(N(Cc3ccccc3C)[C@@H](C)CC(=O)O)c3ccccc23)cc1` [DDO-1170, (S)-3-((4-((4-methoxyphenyl)sulfonamido)naphthalen-1-yl) (2-methylbenzyl)amino) butanoic acid], the IC50 turned out to be 1090 nM. `COc1ccc(S(=O)(=O)N(CC(=O)O)c2ccc(N(Cc3cccc(F)c3)[C@@H](C)CC(=O)O)c3ccccc23)cc1` [DDO-1177, (S)-3-((4-((N-(carboxymethyl)-4-methoxyphenyl)sulfonamido)naphthalen-1-yl) (3-fluorobenzyl)amino) butanoic acid]: the IC50 stood at 180 nM.

`COc1ccc(S(=O)(=O)N(CC(=O)O)c2ccc(N(Cc3ccc(C)cc3)[C@@H](C)CC(=O)O)c3ccccc23)cc1` [DDO-1163] displayed an IC50 of 152 nM. For the molecule `COc1ccc(S(=O)(=O)N(CC(=O)O)c2ccc(N(Cc3ccccc3)[C@@H](C)CC(=O)O)c3ccccc23)cc1` [DDO-1161, (S)-3-(benzyl(4-((N-(carboxymethyl)-4methoxyphenyl)sulfonamido)naphthalen-1-yl) (benzyl)amino) butanoic acid], the IC50 is 108 nM. On the same count and under the same terms, the value for `COc1ccc(S(=O)(=O)N(CC(=O)O)c2ccc(N(Cc3ccccc3Cl)[C@@H](C)CC(=O)O)c3ccccc23)cc1` [DDO-1175, (S)-3-((4-((N-(Carboxymethyl)-4-methoxyphenyl)sulfonamido)naphthalen-1-yl) (2-chlorobenzyl)amino) butanoic acid] was 109 nM; that for `COc1ccc(S(=O)(=O)Nc2ccc(N(Cc3ccccc3Cl)[C@@H](C)CC(=O)O)c3ccccc23)cc1` [DDO-1174, (S)-3-((2-chlorobenzyl) (4-((4-methoxyphenyl)sulfonamido)naphthalen-1-yl)amino) butanoic acid] was 1600 nM.

In the case of `COc1ccc(S(=O)(=O)Nc2ccc(N(Cc3cccc(C)c3)[C@@H](C)CC(=O)O)c3ccccc23)cc1` [DDO-1168, (S)-3-((4-((4-methoxyphenyl)sulfonamido)naphthalen-1-yl) (3-methylbenzyl)amino) butanoic acid], the 50% inhibitory concentration (IC50) was determined as 1660 nM. The same measure, in the same setting: the value for `COc1ccc(S(=O)(=O)Nc2ccc(N(Cc3ccc(C)cc3)[C@@H](C)CC(=O)O)c3ccccc23)cc1` [DDO-1162, 3-((4-((4-methoxyphenyl)sulfonamido)naphthalen-1-yl) (4-methylbenzyl)amino) butanoic acid] was 1910 nM.

`COc1ccc(S(=O)(=O)N(CC(=O)O)c2ccc(N(Cc3ccccc3F)[C@@H](C)CC(=O)O)c3ccccc23)cc1` [DDO-1179] showed an IC50 of 75 nM.

Staying with this assay, now noted: FP experiment; general formula III compounds; unit inferred.
`C#CCN(c1ccc(NS(=O)(=O)c2ccccc2C)c2ccccc12)[C@@H](C)CC(=O)O` [DDO-1202, (S)-3-((4-((2-methylphenyl)sulfonamido)naphthalen-1-yl)(prop-2-yn-1-yl)amino) butanoic acid] came in with an IC50 of 240 nM. Same read-out and setting: the value for `C#CCN(c1ccc(NS(=O)(=O)c2ccc(NC(C)=O)cc2)c2ccccc12)[C@@H](C)CC(=O)O` [DDO-1188, (S)-3-((4-((4-acetamidophenyl)sulfonamido)naphthalen-1-yl) (prop-2-yn-1-yl)amino) butanoic acid] was 1460 nM; that for `C#CCN(c1ccc(NS(=O)(=O)c2ccc(C)cc2)c2ccccc12)[C@@H](C)CC(=O)O` [DDO-1194, (S)-3-((4-((4-methylphenyl)sulfonamido)naphthalen-1-yl)(prop-2-yn-1-yl)amino) butanoic acid] was 480 nM; that for `C#CCN(c1ccc(NS(=O)(=O)c2ccccc2OC)c2ccccc12)[C@@H](C)CC(=O)O` [DDO-1198] was 2000 nM.

The assay is the same for the next values; noted with them: FP experiment; general formula IV compounds.
`C#CCN(c1ccc(N(CC(=O)O)S(=O)(=O)c2c(C)c(C)cc(C)c2C)c2ccccc12)[C@@H](C)CC(=O)O` [DDO-1209, (S)-3-((4-((N-(Carboxymethyl)-2,3,5,6-tetramethylphenyl)sulfonamido)naphthalen-1-yl)(prop-2-yn-1-yl)amino) butanoic acid] registered an IC50 of 150 nM. The same measure, in the same setting: to `C#CCN(c1ccc(N(CC(=O)O)S(=O)(=O)c2ccccc2C)c2ccccc12)[C@@H](C)CC(=O)O` [DDO-1203, (S)-3-((4-((N-(Carboxymethyl)-methylphenyl)sulfonamido)naphthalen-1-yl)(prop-2-yn-1-yl)amino) butanoic acid] belongs 170 nM; to `C#CCN(c1ccc(N(CC(=O)O)S(=O)(=O)c2cccc(OC)c2)c2ccccc12)[C@@H](C)CC(=O)O` [DDO-1201], 130 nM.

Molecule `C#CCN(c1ccc(N(CC(=O)O)S(=O)(=O)c2ccccc2)c2ccccc12)[C@@H](C)CC(=O)O` [DDO-1187, (S)-3-((4-(N-(carboxymethyl)benzenesulfonamido)naphthalen-1-yl) (prop-2-yn-1-yl)amino) butanoic acid] gave an IC50 of 3000 nM. Compared with the last molecule, the IC50 is about 23-fold higher. Same read-out and setting: to `C#CCN(c1ccc(N(CC(=O)O)S(=O)(=O)c2ccc(F)cc2)c2ccccc12)[C@@H](C)CC(=O)O` [DDO-1191, (S)-3-((4-((N-(carboxymethyl)-4-fluorophenyl)sulfonamido)naphthalen-1-yl) (prop-2-yn-1-yl)amino) butanoic acid] belongs 2000 nM.

The molecule `C#CCN(c1ccc(N(CC(=O)O)S(=O)(=O)c2ccc(NC(C)=O)cc2)c2ccccc12)[C@@H](C)CC(=O)O` [DDO-1189, (S)-3-((4-((4-acetamido-N-(carboxymethyl)phenyl)sulfonamido)naphthalen-1-yl)(prop-2-yn-1-yl)amino) butanoic acid] showed an IC50 of 630 nM. Same read-out and setting: the value for `C#CCN(c1ccc(N(CC(=O)O)S(=O)(=O)c2ccc(Cl)cc2)c2ccccc12)[C@@H](C)CC(=O)O` [DDO-1193, (S)-3-((4-((N-(Carboxymethyl)-4-chlorophenyl)sulfonamido)naphthalen-1-yl)(prop-2-yn-1-yl)amino) butanoic acid] was 950 nM. Same read-out and setting: the value for `C#CCN(c1ccc(N(CC(=O)O)S(=O)(=O)c2ccc(C(C)C)cc2)c2ccccc12)[C@@H](C)CC(=O)O` [DDO-1197, (S)-3-((4-((N-(carboxymethyl)-4-isopropylphenyl)sulfonamido)naphthalen-1-yl)(prop-2-yn-1-yl)amino) butanoic acid] was 80 nM.

`C#CCN(c1ccc(N(CC(=O)O)S(=O)(=O)c2ccc(OC)cc2)c2ccccc12)[C@@H](C)CC(=O)O` [DDO-1181] yielded an IC50 of 68 nM. Regarding `C#CCN(c1ccc(N(CC(=O)O)S(=O)(=O)c2ccc(C)cc2C)c2ccccc12)[C@@H](C)CC(=O)O` [DDO-1205], the concentration for half-maximal inhibition (IC50) came out at 27 nM. Compared with the last molecule, the IC50 is about 2.5-fold lower. For the molecule `C#CCN(c1ccc(N(CC(=O)O)S(=O)(=O)c2ccc(C)cc2)c2ccccc12)[C@@H](C)CC(=O)O` [DDO-1195, (S)-3-((4-((N-(Carboxymethyl)-4-methylphenyl)sulfonamide)naphthalen-1-yl)(prop-2-yn-1-yl)amino) butanoic acid], the IC50 is 110 nM.

Staying with this assay, now noted: FP experiment; general formula V / VI compounds.
In the case of `C#CCN(c1ccc(NS(=O)(=O)c2ccc(OC)c(Cl)c2)c2ccccc12)[C@@H](C)CC(=O)O` [DDO-1214], the IC50 came out at 75 nM.

Take `C#CCN(c1ccc(N(CC(=O)O)S(=O)(=O)c2ccc(OC)c(Cl)c2)c2ccccc12)[C@@H](C)CC(=O)O` [DDO-1215]: the IC50 amounted to 40 nM. Still for that read-out and setting: the value for `C#CCN(c1ccc(NS(=O)(=O)c2ccc(OC)c(OC)c2)c2ccccc12)[C@@H](C)CC(=O)O` [DDO-1210, (S)-3-((4-((3,4-dimethoxyphenyl)sulfonamido)naphthalen-1-yl) (prop-2-yn-1-yl)amino) butanoic acid] was 72 nM; that for `C#CCN(c1ccc(NS(=O)(=O)c2ccc3c(c2)CCO3)c2ccccc12)[C@@H](C)CC(=O)O` [DDO-1222, (S)-3-((4-((2,3-dihydrobenzofuran)-5-sulfonamido)naphthalen-1-yl) (prop-2-yn-1-yl)amino) butanoic acid] was 160 nM.

`C#CCN(c1ccc(NS(=O)(=O)c2c(C)cc(OC)c(C)c2C)c2ccccc12)[C@@H](C)CC(=O)O` [DDO-1218, (S)-3-((4-((4-methoxy-2,3,6-trimethylphenyl)sulfonamido)naphthalen-1-yl) (prop-2-yn-1-yl)amino) butanoic acid] came in with an IC50 of 23 nM. Still for that read-out and setting: to `C#CCN(c1ccc(N(CC(=O)O)S(=O)(=O)c2ccc(OC)c(C)c2)c2ccccc12)[C@@H](C)CC(=O)O` [DDO-1217, (S)-3-((4-((N-(Carboxymethyl)-4-methoxy-3-methylphenyl)sulfonamido)naphthalen-1-yl)(prop-2-yn-1-yl)amino) butanoic acid] belongs 37 nM; to `C#CCN(c1ccc(NS(=O)(=O)c2ccc(OC)c(F)c2)c2ccccc12)[C@@H](C)CC(=O)O` [DDO-1212, (S)-3-((4-((3-fluoro-4-methoxyphenyl)sulfonamido)naphthalen-1-yl) (prop-2-yn-1-yl)amino) butanoic acid], 277 nM; to `C#CCN(c1ccc(N(CC(=O)O)S(=O)(=O)c2c(C)cc(OC)c(C)c2C)c2ccccc12)[C@@H](C)CC(=O)O` [DDO-1219, (S)-3-((4-((N-(Carboxymethyl)-4-methoxy-2,3,6-trimethylphenyl)sulfonamidyl)naphthalen-1-yl)(prop-2-yn-1-yl)amino) butanoic acid], 7.1 nM.
